Target: T1, dopamine D1 receptor (D1R) (Homo sapiens, UniProt P21728)
T1 construct: gene DRD1; endogenous full-length receptor in SK-N-SH neuroblastoma cells
Assay: ELISA, agonist-induced receptor recognition by anti-D1R antibody, SK-N-SH cells
Assay type: cell-based
Conditions: 1 μM agonist; endogenous receptor

T1 sequence (P21728 whole entry): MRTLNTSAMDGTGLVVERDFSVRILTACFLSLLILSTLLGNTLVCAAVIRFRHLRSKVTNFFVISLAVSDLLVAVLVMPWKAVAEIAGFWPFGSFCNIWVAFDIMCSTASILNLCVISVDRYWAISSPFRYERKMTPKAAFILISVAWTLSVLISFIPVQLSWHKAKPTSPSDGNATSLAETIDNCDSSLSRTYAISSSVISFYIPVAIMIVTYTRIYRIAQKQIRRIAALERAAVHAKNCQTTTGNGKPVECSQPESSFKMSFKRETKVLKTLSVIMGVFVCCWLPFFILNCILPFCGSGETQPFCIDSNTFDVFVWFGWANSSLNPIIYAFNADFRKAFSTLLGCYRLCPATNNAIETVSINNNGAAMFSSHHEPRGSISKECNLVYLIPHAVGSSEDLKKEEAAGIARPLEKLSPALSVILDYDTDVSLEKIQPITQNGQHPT

C=CCN1CCc2c(cc(O)c(O)c2Cl)C(c2cccc(C)c2)C1 (stereo not shown) [SKF83822]
ELISA, agonist-induced receptor recognition by anti-D1R antibody, SK-N-SH cells: treatment with the dopamine D1 receptor (D1R) agonist, SKF83822

Source: PMC5665533, “Generation of G protein-coupled receptor antibodies differentially sensitive to conformational states” (PLoS ONE, 2017)
